Reference: PMC11842588, “A first-in-class selective inhibitor of ERK1/2 and ERK5 overcomes drug resistance with a single-molecule strategy” (Signal Transduction and Targeted Therapy, 2025)

Assays:
Test in all cases: Kinase profiling
Assay type in all cases: biochemical
[1] = biological target: T1, Mnk2(h) (Homo sapiens, UniProt Q9HBH9)
T1 construct: purchased Eurofins Cerep SA (KinaseProfiler)
Method: (§1) 380 kinases inhibitory activities of SKLB-D18 were conducted by Eurofins Cerep SA. The result was illustrated by kinase tree (http://www.kinhub.org/kinmap/).

[2] = biological target: T2, BRK(h) (Homo sapiens, UniProt Q13882)
T2 construct: purchased Eurofins Cerep SA (KinaseProfiler)
T2 sequence (Q13882 whole entry): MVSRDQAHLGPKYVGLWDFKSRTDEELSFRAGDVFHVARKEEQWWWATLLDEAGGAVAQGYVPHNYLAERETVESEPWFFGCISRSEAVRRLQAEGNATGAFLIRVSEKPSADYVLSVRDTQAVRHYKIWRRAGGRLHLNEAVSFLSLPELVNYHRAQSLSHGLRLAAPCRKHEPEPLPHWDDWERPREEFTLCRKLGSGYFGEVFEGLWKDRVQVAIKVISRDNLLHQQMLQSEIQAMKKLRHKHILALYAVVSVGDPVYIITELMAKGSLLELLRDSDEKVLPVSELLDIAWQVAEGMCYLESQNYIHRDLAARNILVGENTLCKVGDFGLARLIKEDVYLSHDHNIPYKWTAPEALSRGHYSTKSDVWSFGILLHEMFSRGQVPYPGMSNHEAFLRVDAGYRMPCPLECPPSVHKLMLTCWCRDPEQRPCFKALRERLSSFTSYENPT
Method: as §1

[3] = biological target: T3, Aurora-A(h) (Homo sapiens, UniProt O14965)
T3 construct: purchased Eurofins Cerep SA (KinaseProfiler)
Method: as §1

[4] = biological target: T4, CaMKIIγ(h) (Homo sapiens, UniProt Q13555)
T4 construct: purchased Eurofins Cerep SA (KinaseProfiler)
Method: as §1

[5] = biological target: T5, TNIK(h) (Homo sapiens, UniProt Q9UKE5)
T5 construct: purchased Eurofins Cerep SA (KinaseProfiler)
Method: as §1

[6] = biological target: T6, EphA3(h) (Homo sapiens, UniProt P29320)
T6 construct: purchased Eurofins Cerep SA (KinaseProfiler)
T6 sequence (P29320 21-983): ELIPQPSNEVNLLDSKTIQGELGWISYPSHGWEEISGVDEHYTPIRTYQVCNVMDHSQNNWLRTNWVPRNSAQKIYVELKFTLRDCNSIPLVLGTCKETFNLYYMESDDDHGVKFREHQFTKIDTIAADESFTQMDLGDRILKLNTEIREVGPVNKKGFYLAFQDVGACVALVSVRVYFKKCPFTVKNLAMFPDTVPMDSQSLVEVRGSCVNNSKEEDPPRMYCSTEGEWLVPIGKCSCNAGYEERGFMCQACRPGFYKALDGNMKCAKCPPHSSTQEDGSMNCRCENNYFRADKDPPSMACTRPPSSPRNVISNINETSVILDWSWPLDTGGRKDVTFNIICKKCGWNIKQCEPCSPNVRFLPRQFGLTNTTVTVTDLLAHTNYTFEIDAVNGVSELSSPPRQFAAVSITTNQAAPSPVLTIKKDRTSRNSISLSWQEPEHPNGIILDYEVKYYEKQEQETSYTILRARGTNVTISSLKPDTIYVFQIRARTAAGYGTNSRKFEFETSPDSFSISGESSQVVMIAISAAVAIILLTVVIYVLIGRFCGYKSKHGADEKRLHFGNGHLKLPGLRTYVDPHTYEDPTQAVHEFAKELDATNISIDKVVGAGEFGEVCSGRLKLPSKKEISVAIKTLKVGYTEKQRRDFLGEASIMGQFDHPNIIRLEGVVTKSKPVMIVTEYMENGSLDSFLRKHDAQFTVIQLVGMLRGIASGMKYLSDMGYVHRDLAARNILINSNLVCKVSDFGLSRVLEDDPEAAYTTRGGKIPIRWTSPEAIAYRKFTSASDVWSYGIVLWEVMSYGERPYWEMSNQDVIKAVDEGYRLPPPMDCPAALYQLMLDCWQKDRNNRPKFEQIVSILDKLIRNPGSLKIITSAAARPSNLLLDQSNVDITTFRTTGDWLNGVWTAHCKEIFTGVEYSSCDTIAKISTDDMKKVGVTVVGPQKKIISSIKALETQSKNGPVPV
Method: as §1

[7] = biological target: T7, SGK2(h) (Homo sapiens, UniProt Q9HBY8)
T7 construct: purchased Eurofins Cerep SA (KinaseProfiler)
Method: as §1

[8] = biological target: T8, CDK5/p35(h) (Homo sapiens, UniProt Q00535)
T8 construct: purchased Eurofins Cerep SA (KinaseProfiler)
Method: as §1

[9] = biological target: T9, RIPK2(h) (Homo sapiens, UniProt O43353)
T9 construct: purchased Eurofins Cerep SA (KinaseProfiler)
Method: as §1

[10] = biological target: T10, ACTR2(h) (Homo sapiens, UniProt P27037)
T10 construct: purchased Eurofins Cerep SA (KinaseProfiler)
T10 sequence (P27037 20-513): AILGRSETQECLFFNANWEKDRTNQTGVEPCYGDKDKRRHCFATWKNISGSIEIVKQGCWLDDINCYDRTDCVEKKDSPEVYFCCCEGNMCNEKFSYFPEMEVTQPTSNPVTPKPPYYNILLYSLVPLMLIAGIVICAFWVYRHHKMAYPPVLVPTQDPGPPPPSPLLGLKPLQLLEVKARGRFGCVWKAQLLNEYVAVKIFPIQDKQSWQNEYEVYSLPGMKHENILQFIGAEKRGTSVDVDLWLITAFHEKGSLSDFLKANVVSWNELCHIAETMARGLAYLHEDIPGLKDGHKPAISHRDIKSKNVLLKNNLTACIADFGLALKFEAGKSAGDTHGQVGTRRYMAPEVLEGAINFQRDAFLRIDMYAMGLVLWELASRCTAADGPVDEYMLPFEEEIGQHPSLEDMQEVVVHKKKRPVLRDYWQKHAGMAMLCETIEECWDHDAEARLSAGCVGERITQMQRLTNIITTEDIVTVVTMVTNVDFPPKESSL
Method: as §1

[11] = biological target: T11, SIK2(h) (Homo sapiens, UniProt Q9H0K1)
T11 construct: purchased Eurofins Cerep SA (KinaseProfiler)
Method: as §1

[12] = biological target: T12, Fms(h) (Homo sapiens, UniProt P07333)
T12 construct: purchased Eurofins Cerep SA (KinaseProfiler)
Method: as §1

[13] = biological target: T13, MAPKAP-K3(h) (Homo sapiens, UniProt Q16644)
T13 construct: purchased Eurofins Cerep SA (KinaseProfiler)
T13 sequence (Q16644 whole entry): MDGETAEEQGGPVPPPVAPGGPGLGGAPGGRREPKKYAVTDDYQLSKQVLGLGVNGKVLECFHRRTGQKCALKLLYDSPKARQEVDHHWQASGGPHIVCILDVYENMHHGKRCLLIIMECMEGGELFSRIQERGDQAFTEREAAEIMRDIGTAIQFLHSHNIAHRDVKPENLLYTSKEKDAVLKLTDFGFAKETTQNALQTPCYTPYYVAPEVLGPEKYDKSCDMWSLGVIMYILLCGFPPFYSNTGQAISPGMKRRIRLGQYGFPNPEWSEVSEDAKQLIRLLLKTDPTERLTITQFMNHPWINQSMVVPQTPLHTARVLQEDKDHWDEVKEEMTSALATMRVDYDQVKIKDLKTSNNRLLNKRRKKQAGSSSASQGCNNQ
Method: as §1

[14] = biological target: T14, STK32C(h) (Homo sapiens, UniProt Q86UX6)
T14 construct: purchased Eurofins Cerep SA (KinaseProfiler)
Method: as §1

[15] = biological target: T15, Cdc7/cyclinB1(h) (Homo sapiens, UniProt O00311)
T15 construct: purchased Eurofins Cerep SA (KinaseProfiler)
Method: as §1

[16] = biological target: T16, STK32A(h) (Homo sapiens, UniProt Q8WU08)
T16 construct: purchased Eurofins Cerep SA (KinaseProfiler)
Method: as §1

[17] = biological target: T17, ULK3(h) (Homo sapiens, UniProt Q6PHR2)
T17 construct: purchased Eurofins Cerep SA (KinaseProfiler)
Method: as §1

[18] = biological target: T18, CDK16/cyclinY(h) (Homo sapiens, UniProt Q00536)
T18 construct: purchased Eurofins Cerep SA (KinaseProfiler)
T18 sequence (Q00536 whole entry): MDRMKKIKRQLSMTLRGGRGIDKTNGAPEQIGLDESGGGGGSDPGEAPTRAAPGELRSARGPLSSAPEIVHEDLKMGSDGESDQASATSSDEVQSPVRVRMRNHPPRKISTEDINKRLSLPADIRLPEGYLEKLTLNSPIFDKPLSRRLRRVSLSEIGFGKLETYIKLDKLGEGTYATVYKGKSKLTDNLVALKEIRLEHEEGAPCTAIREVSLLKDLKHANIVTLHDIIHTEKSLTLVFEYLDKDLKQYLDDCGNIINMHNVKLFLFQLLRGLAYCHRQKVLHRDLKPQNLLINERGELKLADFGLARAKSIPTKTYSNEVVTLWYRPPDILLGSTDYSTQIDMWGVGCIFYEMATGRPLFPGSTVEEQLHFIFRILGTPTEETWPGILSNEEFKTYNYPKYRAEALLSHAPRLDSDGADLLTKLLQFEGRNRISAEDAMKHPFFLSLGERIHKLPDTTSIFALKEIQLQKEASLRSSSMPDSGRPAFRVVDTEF
T18 sequence (Q8ND76 whole entry partner): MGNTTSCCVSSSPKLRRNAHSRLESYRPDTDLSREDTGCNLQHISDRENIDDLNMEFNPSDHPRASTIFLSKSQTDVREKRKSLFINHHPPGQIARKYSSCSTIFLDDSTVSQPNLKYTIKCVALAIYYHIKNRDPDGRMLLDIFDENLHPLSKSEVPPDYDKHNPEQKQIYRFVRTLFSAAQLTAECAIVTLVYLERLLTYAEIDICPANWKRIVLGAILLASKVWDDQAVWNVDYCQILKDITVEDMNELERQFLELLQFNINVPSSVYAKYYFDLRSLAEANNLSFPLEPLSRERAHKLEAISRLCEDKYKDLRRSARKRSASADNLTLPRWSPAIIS
Method: as §1

[19] = biological target: T19, DYRK3(h) (Homo sapiens, UniProt O43781)
T19 construct: purchased Eurofins Cerep SA (KinaseProfiler)
T19 sequence (O43781 whole entry): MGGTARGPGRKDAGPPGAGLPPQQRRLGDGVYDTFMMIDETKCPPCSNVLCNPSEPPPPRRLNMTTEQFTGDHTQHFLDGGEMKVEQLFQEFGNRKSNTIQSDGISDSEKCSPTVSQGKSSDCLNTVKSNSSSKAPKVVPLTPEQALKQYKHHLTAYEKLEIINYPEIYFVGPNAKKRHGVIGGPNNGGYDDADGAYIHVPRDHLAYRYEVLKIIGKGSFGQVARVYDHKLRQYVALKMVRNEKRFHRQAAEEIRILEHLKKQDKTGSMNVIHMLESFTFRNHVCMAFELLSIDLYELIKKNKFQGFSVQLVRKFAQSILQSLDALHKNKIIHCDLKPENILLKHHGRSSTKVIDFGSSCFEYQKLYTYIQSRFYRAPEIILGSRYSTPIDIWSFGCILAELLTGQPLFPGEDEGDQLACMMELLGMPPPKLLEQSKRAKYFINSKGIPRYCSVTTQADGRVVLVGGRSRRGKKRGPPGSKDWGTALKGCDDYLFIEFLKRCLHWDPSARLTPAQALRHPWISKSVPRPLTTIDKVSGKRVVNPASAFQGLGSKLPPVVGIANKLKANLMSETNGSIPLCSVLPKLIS
Method: as §1

[20] = biological target: T20, ZAK(h) (Homo sapiens, UniProt Q9NYL2)
T20 construct: purchased Eurofins Cerep SA (KinaseProfiler)
Method: as §1

[21] = biological target: T21, PAK5(h) (Homo sapiens, UniProt Q9P286)
T21 construct: purchased Eurofins Cerep SA (KinaseProfiler)
Method: as §1

[22] = biological target: T22, PKD3(h) (Homo sapiens, UniProt O94806)
T22 construct: purchased Eurofins Cerep SA (KinaseProfiler)
Method: as §1

[23] = biological target: T23, Fgr(h) (Homo sapiens, UniProt P09769)
T23 construct: purchased Eurofins Cerep SA (KinaseProfiler)
Method: as §1

[24] = biological target: T24, c-RAF(h) (Homo sapiens, UniProt P04049)
T24 construct: purchased Eurofins Cerep SA (KinaseProfiler)
Method: as §1

[25] = biological target: T25, HIPK2(h) (Homo sapiens, UniProt Q9H2X6)
T25 construct: purchased Eurofins Cerep SA (KinaseProfiler)
Method: as §1

[26] = biological target: T26, MSSK1(h) (Homo sapiens, UniProt Q9UPE1)
T26 construct: purchased Eurofins Cerep SA (KinaseProfiler)
Method: as §1

[27] = biological target: T27, SNRK(h) (Homo sapiens, UniProt Q9NRH2)
T27 construct: purchased Eurofins Cerep SA (KinaseProfiler)
Method: as §1

[28] = biological target: T28, VRK2(h) (Homo sapiens, UniProt Q86Y07)
T28 construct: purchased Eurofins Cerep SA (KinaseProfiler)
Method: as §1

[29] = biological target: T29, Flt1(h) (Homo sapiens, UniProt P17948)
T29 construct: purchased Eurofins Cerep SA (KinaseProfiler)
Method: as §1

[30] = biological target: T30, IRE1(h) (Homo sapiens, UniProt O75460)
T30 construct: purchased Eurofins Cerep SA (KinaseProfiler)
Method: as §1

[31] = biological target: T31, JAK2(h) (Homo sapiens, UniProt O60674)
T31 construct: purchased Eurofins Cerep SA (KinaseProfiler)
Method: as §1

[32] = biological target: T32, Aurora-B(h) (Homo sapiens, UniProt Q96GD4)
T32 construct: purchased Eurofins Cerep SA (KinaseProfiler)
Method: as §1

[33] = biological target: T33, Fyn(h) (Homo sapiens, UniProt P06241)
T33 construct: purchased Eurofins Cerep SA (KinaseProfiler)
Method: as §1

[34] = biological target: T34, Plk1(h) (Homo sapiens, UniProt P53350)
T34 construct: purchased Eurofins Cerep SA (KinaseProfiler)
Method: as §1

[35] = biological target: T35, TGFBR2(h) (Homo sapiens, UniProt P37173)
T35 construct: purchased Eurofins Cerep SA (KinaseProfiler)
Method: as §1

[36] = biological target: T36, MLK2(h) (Homo sapiens, UniProt Q02779)
T36 construct: purchased Eurofins Cerep SA (KinaseProfiler)
Method: as §1

[37] = biological target: T37, CDKL4(h) (Homo sapiens, UniProt Q5MAI5)
T37 construct: purchased Eurofins Cerep SA (KinaseProfiler)
T37 sequence (Q5MAI5 whole entry): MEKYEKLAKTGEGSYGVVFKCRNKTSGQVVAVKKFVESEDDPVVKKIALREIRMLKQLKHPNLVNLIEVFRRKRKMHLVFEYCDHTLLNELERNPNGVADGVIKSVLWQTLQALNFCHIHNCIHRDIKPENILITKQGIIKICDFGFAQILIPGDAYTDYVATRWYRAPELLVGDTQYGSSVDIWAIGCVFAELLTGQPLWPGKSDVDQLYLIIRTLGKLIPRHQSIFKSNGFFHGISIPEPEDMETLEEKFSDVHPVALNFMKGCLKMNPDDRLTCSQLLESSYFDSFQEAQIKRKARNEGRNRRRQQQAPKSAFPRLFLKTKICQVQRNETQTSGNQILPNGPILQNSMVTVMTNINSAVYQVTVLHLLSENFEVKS
Method: as §1

[38] = biological target: T38, STK33(h) (Homo sapiens, UniProt Q9BYT3)
T38 construct: purchased Eurofins Cerep SA (KinaseProfiler)
Method: as §1

[39] = biological target: T39, PKBβ(h) (Homo sapiens, UniProt P31751)
T39 construct: purchased Eurofins Cerep SA (KinaseProfiler)
Method: as §1

[40] = biological target: T40, IRAK1(h) (Homo sapiens, UniProt P51617)
T40 construct: purchased Eurofins Cerep SA (KinaseProfiler)
Method: as §1

[41] = biological target: T41, FGFR2(h) (Homo sapiens, UniProt P21802)
T41 construct: purchased Eurofins Cerep SA (KinaseProfiler)
T41 sequence (P21802 22-821): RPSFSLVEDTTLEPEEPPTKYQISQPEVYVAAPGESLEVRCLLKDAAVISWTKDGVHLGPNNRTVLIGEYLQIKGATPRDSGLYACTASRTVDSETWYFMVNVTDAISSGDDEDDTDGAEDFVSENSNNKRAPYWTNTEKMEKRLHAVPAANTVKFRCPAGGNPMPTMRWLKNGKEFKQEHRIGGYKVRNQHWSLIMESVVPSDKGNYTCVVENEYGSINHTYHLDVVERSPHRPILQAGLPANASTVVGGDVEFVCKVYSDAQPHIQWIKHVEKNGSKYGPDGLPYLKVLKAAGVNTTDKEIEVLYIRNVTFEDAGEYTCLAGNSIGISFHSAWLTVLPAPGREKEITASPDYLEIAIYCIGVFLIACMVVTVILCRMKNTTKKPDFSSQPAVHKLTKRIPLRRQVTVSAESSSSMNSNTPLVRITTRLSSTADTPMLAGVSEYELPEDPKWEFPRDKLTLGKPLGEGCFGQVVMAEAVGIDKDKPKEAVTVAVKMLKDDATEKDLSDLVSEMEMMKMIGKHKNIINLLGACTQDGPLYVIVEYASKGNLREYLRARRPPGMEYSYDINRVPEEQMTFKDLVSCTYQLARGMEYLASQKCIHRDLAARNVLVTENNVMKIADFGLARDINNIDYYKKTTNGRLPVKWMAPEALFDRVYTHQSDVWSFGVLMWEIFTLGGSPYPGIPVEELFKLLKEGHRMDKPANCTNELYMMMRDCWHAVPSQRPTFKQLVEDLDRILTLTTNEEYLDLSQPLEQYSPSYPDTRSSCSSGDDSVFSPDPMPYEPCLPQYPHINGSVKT
Method: as §1

CN(C)Cc1cccc(Nc2ncc(Cl)c(-c3csc(C(=O)NN4CCOCC4)c3)n2)c1 [SKLB-D18, 4-(5-chloro-2-((3-((dimethylamino)methyl)phenyl)amino)pyrimidin-4-yl)-N-morpholinothiophene-2-carboxamide]
inhibition at 1 µM [1]: 59% | inhibition at 1 µM [2]: 32% | inhibition at 1 µM [3]: 51% | inhibition at 1 µM [4]: 50% | inhibition at 1 µM [5]: 48% | inhibition at 1 µM [6]: 12% | inhibition at 1 µM [7]: 11% | inhibition at 1 µM [8]: 57% | inhibition at 1 µM [9]: 61% | inhibition at 1 µM [10]: 10% | inhibition at 1 µM [11]: 67% | inhibition at 1 µM [12]: 34% | inhibition at 1 µM [13]: -10% | inhibition at 1 µM [14]: 1% | inhibition at 1 µM [15]: 30% | inhibition at 1 µM [16]: -3% | inhibition at 1 µM [17]: 45% | inhibition at 1 µM [18]: 66% | inhibition at 1 µM [19]: 49% | inhibition at 1 µM [20]: 5% | inhibition at 1 µM [21]: 26% | inhibition at 1 µM [22]: 55% | inhibition at 1 µM [23]: 42% | inhibition at 1 µM [24]: 65% | inhibition at 1 µM [25]: 67% | inhibition at 1 µM [26]: -19% | inhibition at 1 µM [27]: -14% | inhibition at 1 µM [28]: -3% | inhibition at 1 µM [29]: 39% | inhibition at 1 µM [30]: 2% | inhibition at 1 µM [31]: 67% | inhibition at 1 µM [32]: 66% | inhibition at 1 µM [33]: 60% | inhibition at 1 µM [34]: -5% | inhibition at 1 µM [35]: 30% | inhibition at 1 µM [36]: 59% | inhibition at 1 µM [37]: 66% | inhibition at 1 µM [38]: 63% | inhibition at 1 µM [39]: -12% | inhibition at 1 µM [40]: 60% | inhibition at 1 µM [41]: 55%
